SMILES strings stand for the structures.

A short description of this data set: Human HepG2 cell viability assay in 384 well format. The data set is classed as toxicity, cell-based. Set-up: dose 125 nL, time 70.5 hour; cytotoxicity at 70.5 h: concentration not given beside the values. To be noted: HepG2 cells, read-out: Inhibition.
For `CC(C)NS(=O)(=O)c1cc(C(=O)O)cc(-c2ccccc2C#N)c1`, the cytotoxicity at 70.5 h came to 6.18%.
On to `CCn1cc(CN2CC3CCCN3C[C@H]2C)c(C)n1` (stereo not given in full), for which the cytotoxicity at 70.5 h is 2.28%.
In the case of `Cc1c(C(C)NC(=O)C2CCCCC2)cnn1C` (stereo not given) it was 5.03%; in that of `COc1c(C2CCCN2C(=O)c2cnc(C)cn2)c(C)nn1C` (stereo not given), 10.6%.
Regarding `Cc1ccc2cc(CN(C)Cc3ccccn3)c(=O)[nH]c2c1`, the cytotoxicity at 70.5 h is 12.4%.
For `CCN(CC)C1CCN(C(=O)c2cc3cc(C)cc(C)c3nc2C)CC1`, the cytotoxicity at 70.5 h was -2.42%.
For `O=C(c1cscn1)N1CCc2ncc(CN3CCOCC3)n2CC1`, the cytotoxicity at 70.5 h is -15.7%.
For `Cc1ccc(-c2nc(C(=O)N3CCN(C(=O)N(C)C)CC3)cs2)c(C)c1`, the cytotoxicity at 70.5 h was -9.21%.
Take `COc1cccc(CN(C)CC2=Nc3ccccc3S(=O)(=O)N2)c1`: the cytotoxicity at 70.5 h was -8.56%.
As to `O=C(O)CSC1CCc2ccccc2NC1=O` (stereo not given), the cytotoxicity at 70.5 h is -14.7%.
Turning to `O=c1c(-c2ccnc(N3CCCC[C@@H]3CO)n2)cnc2sccn12`, the cytotoxicity at 70.5 h is -4.35%.
Regarding `CN(Cc1ccco1)Cc1cncc2c1CCN(S(C)(=O)=O)C2`, the cytotoxicity at 70.5 h was -8.46%.
The result for `Cc1noc(-c2ccc(N3CCC(C(=O)N4CCCC4)CC3)nc2)n1` reads -1.82%; that for `COc1ccccc1Oc1ncccc1CNC(=O)C(C)N1CCCC1` (stereo not given), -1.98%; that for `COc1cccc(CN(C)Cc2cc(C#N)ccc2F)c1OC`, -9.77%.
Take `NC(=O)NCCC(=O)N1CCC(c2cc(-c3ccccc3Cl)n[nH]2)CC1`: the cytotoxicity at 70.5 h was -1.52%.
Consider `Cc1cc(CN(C)C(=O)NC2CCC(O)CC2)no1` (stereo not given), for which the cytotoxicity at 70.5 h is -7.4%.
With `CCn1cc(NC(=O)NCc2ccc(CO)c(F)c2)cn1`, the cytotoxicity at 70.5 h is -7.1%.
Turning to `O=C(C1CC(F)(F)C1)N1C[C@@H]2CN(Cc3ccsc3)CCO[C@@H]2C1`, the cytotoxicity at 70.5 h was -14.8%.
Turning to `C=Cn1ncc(CN2C[C@@H]3C[C@@H](O)CN3C[C@H]2Cc2ccccc2)c1C`, the cytotoxicity at 70.5 h was -5.5%.
Consider `CC(NC(=O)NCc1cccc(N2CCCC2=O)c1)c1ccccc1` (stereo not given), for which the cytotoxicity at 70.5 h was -12.2%.
As to `CCCN1CCCC1Cn1nc(C)cc1C` (stereo not given), the cytotoxicity at 70.5 h was -3.07%.
In the case of `O=C(Cc1csc(N2CCNC2=O)n1)NC(c1ccccc1)C1CC1` (stereo not given), the cytotoxicity at 70.5 h is -3.72%.
In the case of `N#Cc1ncn(CCC(=O)Nc2ccccc2F)n1`, the cytotoxicity at 70.5 h is -0.493%.
For the compound `O=C(c1ccc2[nH]ccc2c1)N1CCn2cc(CN3CCCC3)nc2C1`, the cytotoxicity at 70.5 h was -13.7%.
As for `COCCNc1ccccc1CNC(=O)NCc1ccc(C)s1`, the cytotoxicity at 70.5 h is -6.41%.
Regarding `CC(c1ccncn1)N(C)Cc1cc(O)c2cc(F)ccc2n1` (stereo not given), the cytotoxicity at 70.5 h was -8.14%.
The result for `Cc1cc(C(=O)NCCN2CCCC(C)C2)nn1C(C)(C)C` (stereo not given) reads -22.7%; that for `CCC1CCCCN1CCNC(=O)N1CCN(Cc2ccon2)CC1` (stereo not given), -2.53%; that for `CC(C)S(=O)(=O)CC(=O)N(Cc1ccsc1)c1ccccc1`, -7.19%.
Take `COc1ccc(F)cc1C(C(=O)O)N1CCCN(C2CCCC2)CC1` (stereo not given): the cytotoxicity at 70.5 h is -5.48%.
The result for `Cc1ccc(-c2nnc(SCC(=O)O)n2-c2ccccc2)cc1` reads -10.9%; that for `Cc1c(Br)cccc1S(=O)(=O)NCc1ccnn1C`, -3.27%.
Take `Cc1ccsc1CNC(=O)Nc1ccn(CCN2CCOCC2)n1`: the cytotoxicity at 70.5 h came to 14.8%.
Consider `COCCCN(C)C(=O)c1nnn(-c2ccccc2Cl)c1C`, for which the cytotoxicity at 70.5 h was 1.5%.
For the compound `O=C(CN1CCCCC1)Nc1ncc(Br)cc1Br`, the cytotoxicity at 70.5 h was found to be 48.9%.
For the compound `O=C(NCc1ccncc1)c1ccc(Cl)cc1F`, the cytotoxicity at 70.5 h was determined as 4.94%.
As to `COCC(=O)N1CCC(c2nc3ccc(-c4ccncc4)cn3n2)CC1`, the cytotoxicity at 70.5 h was -6.45%.
Take `COc1ccc(OC)c(CNC2CCCN(c3cccnn3)C2)c1` (stereo not given): the cytotoxicity at 70.5 h is -3.12%.
For `CC(C)n1cc(C(=O)N2CCN(c3cccc(C(F)(F)F)c3)CC2)cn1`, the cytotoxicity at 70.5 h was -5.28%.
With `CC(C)[C@@H]1CN(Cc2cnc(C3CCCCC3)nc2)C[C@H]1N(C)C`, the cytotoxicity at 70.5 h was 8.03%.
In the case of `O=C(C1CCOC1)N1CCC2(CCNCC2)C1` (stereo not given) it was 27.5%; in that of `Cc1ccc(F)c(S(=O)(=O)NCCc2nnc[nH]2)c1`, 15.4%.
Regarding `CC(C)c1cc(N2CCSCC2)n2nccc2n1`, the cytotoxicity at 70.5 h was 19.1%.
`CC(C)(C)C(=O)NCCCn1cncn1`: the cytotoxicity at 70.5 h stood at 6.35%.
`FC(F)(F)c1ccnc(N2CCCN(C3CCOCC3)CC2)c1`: the cytotoxicity at 70.5 h was -11.5%.
Turning to `O=C(c1ccsc1)N1CCN(CC(O)c2cccc(F)c2)CC1` (stereo not given), the cytotoxicity at 70.5 h was 9.92%.
Take `CN1CCNCC(Cc2cnc3ccccc3c2)C1` (stereo not given): the cytotoxicity at 70.5 h is -3.02%.
In the case of `O=C(COCC1CC1)Nc1ccn(Cc2cccc3cccnc23)n1`, the cytotoxicity at 70.5 h is -1.28%.
Take `COCCN1CCCC2(CCC(=O)N2Cc2cccnc2)C1` (stereo not given): the cytotoxicity at 70.5 h worked out at 28.9%.
In the case of `CN(C)C(=O)[C@H]1C[C@@H]2CCN(Cc3ccoc3)C[C@@H]2O1`, the cytotoxicity at 70.5 h is -13.4%.
In the case of `COC(C)(C)CNC(=O)c1cn(-c2cccc(Cl)c2F)nn1`, the cytotoxicity at 70.5 h was found to be 4.1%.
For the compound `O=C(CCc1ccc(F)cc1)NS(=O)(=O)c1ccc2c(c1)OCCO2`, the cytotoxicity at 70.5 h was -4.67%.
As to `CN(C)[C@@H]1CN(C(=O)Cc2ccccc2)[C@@H]2CCCO[C@H]12`, the cytotoxicity at 70.5 h is 15.5%.
Turning to `CC(C)c1ncc(S(C)(=O)=O)c(C2CCCNC2)n1` (stereo not given), the cytotoxicity at 70.5 h was -7.47%.
Turning to `C/C(NC(=O)c1ccccn1)=C1\C(=O)C[C@@H]2[C@H]1C2(C)C`, the cytotoxicity at 70.5 h was -2.07%.
For the compound `Cc1ccc(OCCC(=O)NC2CCc3nc(C)cn3C2)cc1` (stereo not given), the cytotoxicity at 70.5 h was 2.29%.
In the case of `CNc1nc(C(=O)N2CCCN(c3ccnc(C)c3)CC2)cs1` it was -5.86%.
As to `CCN(CC)CCNC(=O)C(C)OCC(F)(F)F` (stereo not given), the cytotoxicity at 70.5 h is -3.49%.
For the compound `CNC(=O)C(C)(C)N1CCC[C@H]1C(=O)NC(C)(C)C`, the cytotoxicity at 70.5 h was determined as 14.3%.
On to `CN1CCOC(CN(C(=O)CCc2cnn(C)c2)c2nccs2)C1` (stereo not given), for which the cytotoxicity at 70.5 h was -5.55%.
In the case of `Cc1cncc(C(=O)N2CCCC(O)(CO)C2)c1` (stereo not given) it was -7.18%; in that of `COCc1noc(-c2ccc(N3CCCCC3CO)nc2)n1` (stereo not given), -6.84%; in that of `NCc1ccnc(Oc2ccc(F)cc2)c1`, -17%.
With `CCOc1ccccc1CSCCn1nc2ccccn2c1=O`, the cytotoxicity at 70.5 h is -10.1%.
In the case of `CN1CCN(Cc2c(Cl)ccc(O)c2Cl)CC1C(=O)O` (stereo not given) it was -16.7%.
The result for `OC1(CN2CCC(Oc3cccc(C(F)(F)F)c3)CC2)CNCCOC1` (stereo not given) reads -15.4%; that for `CN(C)C(=O)CO[C@H]1CN(Cc2ccsc2)[C@@H]2COC[C@H]12`, -1.85%.
In the case of `Cc1nc(C)n(CC2CCCN(CC(=O)Nc3nnc(C)s3)C2)n1` (stereo not given) it was 17.5%.
As to `Cc1cnn(CC2CCCCN2Cc2nnc(C3CC3)n2C)c1` (stereo not given), the cytotoxicity at 70.5 h was -6.92%.
`CC(=O)N1CCCN(C(=O)c2cnn(C(C)(C)C)c2C)CC1`: the cytotoxicity at 70.5 h was -10.1%.
Take `CC(=O)N(Cc1noc(C2CC2)n1)C1CCN(Cc2nccn2C)C1` (stereo not given): the cytotoxicity at 70.5 h is -5.66%.
Consider `COc1ccc(CC(=O)N2CCC(c3n[nH]c(C4CC4)n3)CC2)cc1`, for which the cytotoxicity at 70.5 h came out at 2.82%.
As for `CCc1ncc2c(n1)CN(Cc1nnc(C)o1)CC2`, the cytotoxicity at 70.5 h was -8.24%.
Regarding `O=C1CCC(=O)N1c1nn(Cc2c(F)cccc2Cl)cc1Cl`, the cytotoxicity at 70.5 h came to 6.93%.
For `O=C(Cn1c(=O)oc2ccccc21)N1Cc2cncnc2C1`, the cytotoxicity at 70.5 h was -5.29%.
The result for `Cc1nc(C2CCCN(C(=O)c3cc(Cl)c[nH]3)C2)sc1C` (stereo not given) reads -2.27%; that for `Cc1n[nH]c(C)c1CNC(=O)NC1CCCCC1`, -8.57%; that for `Cc1cc(C)n(CC2CCCCN2C(=O)c2sccc2C#N)n1` (stereo not given), 1.28%.
Regarding `Cc1ccc(-n2nnnc2C2(NCc3ccco3)CCCC2)cc1`, the cytotoxicity at 70.5 h was -13.6%.
Consider `CCO[C@@H]1CCN(C(=O)c2ccnnc2)[C@@H]1Cc1cnn(C)c1`, for which the cytotoxicity at 70.5 h came out at 3.33%.
Consider `CC1CCC(NS(=O)(=O)CC(=O)Nc2ccccc2N2CCCC2)CC1` (stereo not given), for which the cytotoxicity at 70.5 h is -1.66%.
As for `COC(=O)Nc1ccc(CNc2cncc(-n3cccn3)n2)cc1`, the cytotoxicity at 70.5 h was -18.2%.
In the case of `O=C(c1ccn(-c2cccc(Cl)c2)n1)N1CCN(C2CC2)CC1` it was -0.559%; in that of `COCCNC(=O)NC1(c2nc(-c3ccncc3)no2)CCCCC1`, 5.97%; in that of `O=C(NCc1cccs1)[C@@H]1CC[C@@H]2[C@@H](CCN2c2ncccn2)O1`, -19.1%.
Regarding `Cc1nccc(-c2cccc(NCC(=O)N3CCCCCCC3)c2)n1`, the cytotoxicity at 70.5 h is 17.3%.
In the case of `Cc1nn(-c2ccc(C(=O)O)cc2)c2c1C(CC(C)C)SCC(=O)N2` (stereo not given), the cytotoxicity at 70.5 h came to 0.483%.
The result for `CC(CNCC1(S(C)(=O)=O)CCOCC1)c1ccc(F)cc1` (stereo not given) reads 9.05%; that for `COCc1nc2ncc3c(=O)n(-c4ccc(OC)cc4)ccc3n2n1`, -5.86%.
`CCCNC(=O)C1CCN(CC2(O)CCC(C)CC2)CC1` (stereo not given): the cytotoxicity at 70.5 h was -3.07%.
In the case of `O=C(c1cccnc1)N1CCc2ncnc(C3CCOC3)c2CC1` (stereo not given) it was -7.71%; in that of `CS(=O)(=O)CCCN1CCOC2(CCc3ccccc32)C1` (stereo not given), 0.769%; in that of `CNC(=O)[C@H]1C[C@@H]2CN(S(=O)(=O)c3ccccc3)C[C@@H]2N1C(C)=O`, -3.07%.
In the case of `CS(=O)(=O)NCCCN1CCCC1c1ccccc1` (stereo not given) it was 20%; in that of `Cc1cnn(CC2CCCN2C(=O)c2ccc(Cl)cc2F)c1` (stereo not given), -1.79%; in that of `CSCCC(O)C(=O)N1CCCN(Cc2cccnc2)CC1` (stereo not given), -9.6%.
In the case of `Cc1ncsc1-c1nnc(C2CCN(Cc3ccccc3)CC2)o1`, the cytotoxicity at 70.5 h was -1.36%.
Take `Cn1ccc(C(=O)N2CCN(c3ccccn3)CC2)cc1=O`: the cytotoxicity at 70.5 h is -1.81%.
On to `Cc1ccnc(OC[C@]23COC[C@H]2CN(C(=O)c2ccnn2C)C3)n1`, for which the cytotoxicity at 70.5 h was -8.86%.
